Data taken from ChEMBL document CHEMBL5291721, “A preclinical secondary pharmacology resource illuminates target-adverse drug reaction associations of marketed drugs” (Nat Commun, 2023).

Legend:
Adenosine receptor A2a = Adenosine receptor A2a (Homo sapiens, UniProt P29274)
[1] = target: T1, Muscarinic acetylcholine receptor M2 (Homo sapiens, UniProt P08172); type: functional, cell-based
T1 sequence (P08172 whole entry): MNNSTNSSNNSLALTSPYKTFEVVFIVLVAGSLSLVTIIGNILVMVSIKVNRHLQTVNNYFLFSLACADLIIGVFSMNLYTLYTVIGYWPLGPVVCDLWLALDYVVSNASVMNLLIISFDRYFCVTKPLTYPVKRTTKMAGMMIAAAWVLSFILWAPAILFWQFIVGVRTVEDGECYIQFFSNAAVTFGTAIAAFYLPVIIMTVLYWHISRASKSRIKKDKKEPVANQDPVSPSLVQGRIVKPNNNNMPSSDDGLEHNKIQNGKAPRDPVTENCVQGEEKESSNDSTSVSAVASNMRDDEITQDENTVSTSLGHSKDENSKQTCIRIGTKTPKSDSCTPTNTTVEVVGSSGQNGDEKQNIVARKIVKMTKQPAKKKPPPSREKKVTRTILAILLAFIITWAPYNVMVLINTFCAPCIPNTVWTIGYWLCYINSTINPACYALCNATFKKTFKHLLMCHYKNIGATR

D(1A) dopamine receptor = D(1A) dopamine receptor (Homo sapiens, UniProt P21728); type: functional, cell-based
[2] = target: 5-hydroxytryptamine receptor 2A (Homo sapiens, UniProt P28223); type: functional, cell-based
[3] = target: Voltage-gated inwardly rectifying potassium channel KCNH2 (Homo sapiens, UniProt Q12809); type: functional; settings: read-out: AC50
Progesterone receptor = target: T2, Progesterone receptor (Homo sapiens, UniProt P06401); type: functional
T2 sequence (P06401 whole entry): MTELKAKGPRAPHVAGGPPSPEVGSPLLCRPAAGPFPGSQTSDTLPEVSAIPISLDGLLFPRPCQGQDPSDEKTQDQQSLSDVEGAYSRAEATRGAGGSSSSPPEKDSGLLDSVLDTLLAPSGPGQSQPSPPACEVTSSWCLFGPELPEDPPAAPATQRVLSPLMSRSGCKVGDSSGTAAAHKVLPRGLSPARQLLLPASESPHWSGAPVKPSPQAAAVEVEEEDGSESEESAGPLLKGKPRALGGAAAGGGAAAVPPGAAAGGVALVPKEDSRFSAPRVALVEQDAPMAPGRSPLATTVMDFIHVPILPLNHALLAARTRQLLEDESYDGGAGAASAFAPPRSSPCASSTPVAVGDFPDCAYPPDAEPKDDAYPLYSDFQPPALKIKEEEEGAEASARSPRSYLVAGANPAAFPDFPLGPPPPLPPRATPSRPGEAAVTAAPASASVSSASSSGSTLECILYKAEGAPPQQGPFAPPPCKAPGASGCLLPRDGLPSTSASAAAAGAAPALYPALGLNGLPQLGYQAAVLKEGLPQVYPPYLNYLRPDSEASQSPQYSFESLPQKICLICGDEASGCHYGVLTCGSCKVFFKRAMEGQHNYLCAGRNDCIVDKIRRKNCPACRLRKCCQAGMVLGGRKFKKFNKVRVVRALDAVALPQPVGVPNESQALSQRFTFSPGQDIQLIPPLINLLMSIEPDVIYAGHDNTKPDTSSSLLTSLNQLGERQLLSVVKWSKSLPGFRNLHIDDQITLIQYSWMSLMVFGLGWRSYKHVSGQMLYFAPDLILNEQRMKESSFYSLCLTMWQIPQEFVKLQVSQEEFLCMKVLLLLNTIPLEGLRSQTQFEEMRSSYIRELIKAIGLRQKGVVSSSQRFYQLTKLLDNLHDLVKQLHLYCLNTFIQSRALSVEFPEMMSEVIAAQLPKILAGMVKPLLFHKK

[4] = target: T3, Prostaglandin G/H synthase 1 (Rattus norvegicus, UniProt Q63921); type: functional
T3 sequence (Q63921 whole entry): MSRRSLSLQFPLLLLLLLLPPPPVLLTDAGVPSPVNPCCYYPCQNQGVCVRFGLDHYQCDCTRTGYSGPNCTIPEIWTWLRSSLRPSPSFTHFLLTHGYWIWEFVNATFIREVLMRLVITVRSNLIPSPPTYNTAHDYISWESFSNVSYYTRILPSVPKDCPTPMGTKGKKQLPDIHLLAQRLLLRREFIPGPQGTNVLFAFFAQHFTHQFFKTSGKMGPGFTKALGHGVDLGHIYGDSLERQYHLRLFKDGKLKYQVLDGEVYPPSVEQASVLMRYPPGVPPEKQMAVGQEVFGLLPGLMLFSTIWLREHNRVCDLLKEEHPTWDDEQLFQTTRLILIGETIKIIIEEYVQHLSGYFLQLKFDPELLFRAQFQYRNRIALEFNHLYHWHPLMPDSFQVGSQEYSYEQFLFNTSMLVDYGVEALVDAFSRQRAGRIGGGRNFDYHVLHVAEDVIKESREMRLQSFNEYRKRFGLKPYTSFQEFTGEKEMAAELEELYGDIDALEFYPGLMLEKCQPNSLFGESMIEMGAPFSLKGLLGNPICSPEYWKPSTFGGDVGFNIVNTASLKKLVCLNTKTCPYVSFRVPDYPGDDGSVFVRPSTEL

[5] = target: T4, Amine oxidase [flavin-containing] A (Homo sapiens, UniProt P21397); type: functional
T4 sequence (P21397 whole entry): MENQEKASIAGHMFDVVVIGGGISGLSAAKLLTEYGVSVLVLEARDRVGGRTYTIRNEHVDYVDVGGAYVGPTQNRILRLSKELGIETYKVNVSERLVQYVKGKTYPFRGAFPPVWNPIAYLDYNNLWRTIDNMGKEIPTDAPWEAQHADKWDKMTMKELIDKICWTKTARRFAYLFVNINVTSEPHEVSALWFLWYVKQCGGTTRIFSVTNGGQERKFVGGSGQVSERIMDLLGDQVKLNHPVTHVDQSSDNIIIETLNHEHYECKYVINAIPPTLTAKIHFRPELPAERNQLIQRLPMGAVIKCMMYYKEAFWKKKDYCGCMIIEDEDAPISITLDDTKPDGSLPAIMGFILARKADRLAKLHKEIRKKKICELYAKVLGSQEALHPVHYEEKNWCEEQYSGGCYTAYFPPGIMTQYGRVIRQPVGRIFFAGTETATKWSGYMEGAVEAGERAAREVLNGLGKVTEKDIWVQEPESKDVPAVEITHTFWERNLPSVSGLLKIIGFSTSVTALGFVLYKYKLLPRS

[6] = target: Beta-2 adrenergic receptor (Homo sapiens, UniProt P07550)
Further: assay procedure not described here.

Chain of 5-hydroxytryptamine receptor 2A (P28223 whole entry): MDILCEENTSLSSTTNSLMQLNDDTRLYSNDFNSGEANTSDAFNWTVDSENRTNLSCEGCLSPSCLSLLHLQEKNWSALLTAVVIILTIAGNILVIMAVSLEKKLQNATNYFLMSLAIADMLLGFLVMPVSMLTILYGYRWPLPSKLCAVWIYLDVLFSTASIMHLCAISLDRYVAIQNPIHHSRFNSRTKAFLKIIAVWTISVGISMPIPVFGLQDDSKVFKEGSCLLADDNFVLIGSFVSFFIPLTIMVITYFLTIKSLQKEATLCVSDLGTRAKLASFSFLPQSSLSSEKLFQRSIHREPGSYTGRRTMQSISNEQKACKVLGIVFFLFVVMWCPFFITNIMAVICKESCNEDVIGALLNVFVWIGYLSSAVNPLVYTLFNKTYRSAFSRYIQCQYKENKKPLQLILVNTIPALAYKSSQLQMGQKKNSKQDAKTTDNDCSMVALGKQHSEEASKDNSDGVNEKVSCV
Chain of Voltage-gated inwardly rectifying potassium channel KCNH2 (Q12809 whole entry): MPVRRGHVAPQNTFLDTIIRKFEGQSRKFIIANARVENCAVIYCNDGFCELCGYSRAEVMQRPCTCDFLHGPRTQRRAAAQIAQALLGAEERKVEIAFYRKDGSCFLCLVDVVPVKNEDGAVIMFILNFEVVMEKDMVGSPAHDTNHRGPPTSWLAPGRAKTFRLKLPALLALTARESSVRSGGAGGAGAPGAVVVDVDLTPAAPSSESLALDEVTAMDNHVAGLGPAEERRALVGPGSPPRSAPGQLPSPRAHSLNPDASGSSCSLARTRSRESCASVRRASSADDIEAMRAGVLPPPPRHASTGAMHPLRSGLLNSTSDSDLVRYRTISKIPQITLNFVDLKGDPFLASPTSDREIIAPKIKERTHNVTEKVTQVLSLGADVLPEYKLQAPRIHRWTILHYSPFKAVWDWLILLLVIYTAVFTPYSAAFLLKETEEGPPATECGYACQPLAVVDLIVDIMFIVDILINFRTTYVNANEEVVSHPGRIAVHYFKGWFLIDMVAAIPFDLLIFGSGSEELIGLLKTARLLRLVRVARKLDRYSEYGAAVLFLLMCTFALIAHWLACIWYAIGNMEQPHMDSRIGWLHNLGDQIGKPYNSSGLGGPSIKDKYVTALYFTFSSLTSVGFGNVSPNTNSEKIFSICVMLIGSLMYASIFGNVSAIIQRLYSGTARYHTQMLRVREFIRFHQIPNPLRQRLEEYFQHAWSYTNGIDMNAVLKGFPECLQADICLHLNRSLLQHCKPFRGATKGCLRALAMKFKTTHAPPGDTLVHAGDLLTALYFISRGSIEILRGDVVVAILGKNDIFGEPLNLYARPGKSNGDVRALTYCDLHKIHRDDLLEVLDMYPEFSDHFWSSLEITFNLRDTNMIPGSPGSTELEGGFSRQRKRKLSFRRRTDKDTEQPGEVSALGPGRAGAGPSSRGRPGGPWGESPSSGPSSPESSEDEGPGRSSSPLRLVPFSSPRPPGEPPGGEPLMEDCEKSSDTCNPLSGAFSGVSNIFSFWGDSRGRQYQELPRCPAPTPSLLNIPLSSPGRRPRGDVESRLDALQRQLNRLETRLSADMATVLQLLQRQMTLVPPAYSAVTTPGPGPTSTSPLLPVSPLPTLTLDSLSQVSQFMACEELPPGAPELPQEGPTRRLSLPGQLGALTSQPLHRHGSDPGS
Chain of Adenosine receptor A2a (P29274 whole entry): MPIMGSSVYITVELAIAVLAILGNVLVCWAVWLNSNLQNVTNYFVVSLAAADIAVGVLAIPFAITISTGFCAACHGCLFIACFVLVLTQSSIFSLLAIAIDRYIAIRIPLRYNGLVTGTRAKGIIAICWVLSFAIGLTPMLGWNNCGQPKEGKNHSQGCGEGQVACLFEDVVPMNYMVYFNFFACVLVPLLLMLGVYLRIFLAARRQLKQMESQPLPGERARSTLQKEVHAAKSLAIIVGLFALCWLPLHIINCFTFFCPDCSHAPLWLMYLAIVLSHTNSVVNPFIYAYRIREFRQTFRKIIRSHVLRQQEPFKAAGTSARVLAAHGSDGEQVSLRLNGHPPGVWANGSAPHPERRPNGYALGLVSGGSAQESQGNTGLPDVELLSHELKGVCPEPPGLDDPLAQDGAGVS
Chain of Beta-2 adrenergic receptor (P07550 whole entry): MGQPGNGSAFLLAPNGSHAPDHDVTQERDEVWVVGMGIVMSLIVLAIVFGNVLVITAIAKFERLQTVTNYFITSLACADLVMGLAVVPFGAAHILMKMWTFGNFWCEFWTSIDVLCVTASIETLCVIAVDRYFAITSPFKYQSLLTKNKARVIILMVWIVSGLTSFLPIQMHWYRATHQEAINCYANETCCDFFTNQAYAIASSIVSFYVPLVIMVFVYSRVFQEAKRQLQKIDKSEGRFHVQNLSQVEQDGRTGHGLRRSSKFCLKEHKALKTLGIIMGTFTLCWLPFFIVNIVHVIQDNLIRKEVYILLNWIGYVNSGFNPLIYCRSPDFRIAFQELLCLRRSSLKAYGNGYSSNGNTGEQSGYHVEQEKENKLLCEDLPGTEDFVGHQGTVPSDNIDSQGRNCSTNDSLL
Chain of D(1A) dopamine receptor (P21728 whole entry): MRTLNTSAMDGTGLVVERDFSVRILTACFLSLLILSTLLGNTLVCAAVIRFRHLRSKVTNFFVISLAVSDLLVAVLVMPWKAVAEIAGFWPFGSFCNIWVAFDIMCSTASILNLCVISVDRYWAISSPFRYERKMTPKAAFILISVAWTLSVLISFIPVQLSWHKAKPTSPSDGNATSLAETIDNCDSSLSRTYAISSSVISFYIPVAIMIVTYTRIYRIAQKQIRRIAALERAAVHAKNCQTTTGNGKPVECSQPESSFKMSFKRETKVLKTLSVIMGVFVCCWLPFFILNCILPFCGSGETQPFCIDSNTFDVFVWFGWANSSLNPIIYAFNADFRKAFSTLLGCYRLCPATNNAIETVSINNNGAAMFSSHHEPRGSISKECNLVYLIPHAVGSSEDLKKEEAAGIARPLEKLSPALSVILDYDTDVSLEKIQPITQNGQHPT

Compound | AC50 (Adenosine receptor A2a) | AC50 [1] | AC50 (D(1A) dopamine receptor) | AC50 [2] | AC50 [3] | AC50 (Progesterone receptor) | AC50 [4] | AC50 [5] | AC50 [6]
C[C@H]1C[C@@H]2[C@H]([C@@H](O)C[C@@]3(C)[C@H]2CC[C@]3(O)C(=O)COC(=O)CCC(=O)O)[C@@]2(C)C=CC(=O)C=C12 [METHYLPREDNISOLONE HEMISUCCINATE] | > 30 µM | > 30 µM | > 30 µM | > 30 µM | > 30 µM | > 30 µM | > 30 µM | > 30 µM | 
CN1C(=O)CC(=O)N(c2ccccc2)c2cc(Cl)ccc21 [CLOBAZAM] | > 10 µM | > 10 µM | > 10 µM | > 10 µM | > 30 µM | > 10 µM | > 10 µM | > 10 µM | > 10 µM
CCOC(=O)[C@H](CCc1ccccc1)N[C@H]1CCCN2CCC[C@@H](C(=O)O)N2C1=O [CILAZAPRIL] | > 30 µM | > 30 µM | > 30 µM | > 30 µM | > 30 µM | > 30 µM | > 30 µM | > 30 µM | > 30 µM
CN1CCN(C(=O)OC2c3nccnc3C(=O)N2c2ccc(Cl)cn2)CC1 (configuration not stated) [ZOPICLONE] | > 30 µM | > 10 µM | > 10 µM | > 30 µM | > 30 µM | > 30 µM | > 30 µM | > 30 µM | > 10 µM
C=C1CC[C@@]2(O)[C@H]3Cc4ccc(O)c5c4[C@@]2(CCN3CC2CC2)[C@H]1O5 | > 30 µM | > 30 µM | > 30 µM | > 30 µM | 28 µM | > 30 µM | > 30 µM | > 30 µM | 
COC(=O)[C@H]1[C@@H](OC(=O)c2ccccc2)C[C@@H]2CC[C@H]1N2C [COCAINE] | > 30 µM | > 30 µM | > 30 µM | > 30 µM |  | > 30 µM | > 30 µM | 19 µM | > 30 µM
CCCCCOC(=O)Nc1nc(=O)n([C@@H]2O[C@H](C)[C@@H](O)[C@H]2O)cc1F [CAPECITABINE] | > 30 µM | > 30 µM | > 30 µM | > 30 µM | > 30 µM | > 30 µM | > 30 µM | > 30 µM | 
CCCCC(C)(O)C/C=C/[C@H]1[C@H](O)CC(=O)[C@@H]1CCCCCCC(=O)OC (some centres not stated) [MISOPROSTOL] | > 30 µM | > 30 µM | > 30 µM | > 30 µM | > 30 µM | 27 µM | > 30 µM | > 30 µM | 
Cc1c(Cl)cccc1Nc1ccccc1C(=O)O [TOLFENAMIC ACID] | > 30 µM | > 30 µM | > 30 µM | 15 µM | > 30 µM | 26 µM | 0.6 µM | > 30 µM | 
CCCCCCC(C)(C)c1cc(O)c2c(c1)OC(C)(C)C1CCC(=O)CC21 (configuration not stated) [NABILONE] | > 30 µM | > 30 µM | > 30 µM | > 30 µM | > 30 µM | > 30 µM | > 30 µM | > 30 µM | 
COC(=O)C1=C(C)NC(C)=C(C(=O)OC(C)C)C1c1cccc2nonc12 (configuration not stated) [ISRADIPINE] | > 30 µM | > 10 µM | > 30 µM | > 10 µM | > 30 µM | > 30 µM | > 30 µM | > 30 µM | > 10 µM
C#CC1(OC(N)=O)CCCCC1 [ETHINAMATE] | > 10 µM | > 10 µM | > 10 µM | > 10 µM | > 30 µM | > 10 µM | > 10 µM | > 10 µM | > 10 µM
CCCCCCCCCCCC[N+](C)(C)CCOc1ccccc1 [DOMIPHEN] | > 30 µM |  | > 30 µM | 0.94 µM | 1.7 µM | 4.5 µM | > 30 µM | 28 µM | 15 µM
C#CCN[C@@H]1CCc2ccccc21 [RASAGILINE] | > 30 µM | > 30 µM | > 30 µM | > 30 µM | > 30 µM | > 30 µM | > 30 µM |  | > 30 µM
Cc1ccc(-c2nc3ccc(C)cn3c2CC(=O)N(C)C)cc1 [ZOLPIDEM] | > 30 µM | > 30 µM | > 30 µM | > 30 µM |  | > 30 µM | > 30 µM | > 30 µM | > 30 µM
CCC(C(=O)O)c1ccc(CC(C)C)cc1 (configuration not stated) [BUTIBUFEN] | > 30 µM | > 30 µM | > 30 µM | > 30 µM | > 30 µM | > 30 µM |  | > 30 µM | > 30 µM
CCCCCCCCOc1ccccc1C(=O)Nc1ccc(C(=O)OCC[N+](C)(CC)CC)cc1 [OTILONIUM BROMIDE] | 5.3 µM |  | > 30 µM | 3.9 µM | 0.66 µM | 7 µM | 14 µM | > 30 µM | 11 µM
CCCC(CCC)C(=O)O[C@H]1C[C@H]2CC[C@@H](C1)[N+]2(C)C [ANISOTROPINE] | > 30 µM | 0.63 µM | > 30 µM | > 30 µM | 2.1 µM | > 30 µM | > 30 µM | > 30 µM | 
O=C(O)Cc1cn(-c2ccccc2)nc1-c1ccc(Cl)cc1 [LONAZOLAC] | > 30 µM | > 30 µM | > 30 µM | > 30 µM | > 30 µM | > 30 µM | 19 µM |  | > 30 µM
